From patent publication US11980620B2, “Compounds and methods for treatment of Diamond Blackfan anemia” (THE CHILDREN'S MEDICAL CENTER CORPORATION, priority 2017, dated 2024)

Experiments:
CB CD34+ cells = type: in vivo, NSG mice; details: 1 mg/kg Dex (sodium-phosphate) for 4 weeks; p=0.04
Procedure: (FIG. 10A) SMER28 rescues RBC output in rps29^+/− zebrafish embryos. The level of hemoglobin in the yolk sac was visualized 40hpf with benzidine staining. Images are representative of the proportion of embryos indicated (of total counted). (FIG. 10B) Quantitation of SMER28 rescue for a range of 0.1-1 μM, with embryos grouped by high, medium, and low levels of hemoglobin staining. (FIG. 10C) Peripheral blood (PB) RBC counts and hematocrit in mice with irradiation-induced anemia. Mice were treated with the PEG400-based vehicle containing DMSO (VEH) (n=11), 1 mg/kg Dex (sodium-phosphate) (n=13), or 10 mg/kg SMER28 (n=9) for 3 weeks, bled, and assessed. Data are combined from 3 independent experiments. (FIG. 10D) Erythroid cells as proportion of the human graft in mice transplanted with DBA CD34-5F progenitors, and treated as in (FIG. 1c). (FIG. 10E) Levels of human engraftment in NSG mouse bone marrow (BM) transplanted with CB CD34^+ cells. Mice were treated with DMSO plus vehicle (VEH) (n=10), 1 mg/kg Dex (sodium-phosphate) (n=6), or 2 mg/kg SMER28 (n=11) for 4 weeks. (FIG. 10F) The proportion of erythroid, myeloid, and lymphoid (B cells) lineages within the human graft in vehicle- and SMER28-treated mice transplanted with CB CD34^+ cells. Only the effect on the erythroid lineage was significant. Data in FIGS. 10E-10G are pooled from 2 independent experiments. For all panels, *p<0.05, * *p<0.01.
Drug treatments. SMER28 was purchased from Tocris and diluted in 10 mM aliquots in DMSO. The final concentration for CD34-5F and CB CD34^+erythroid treatments was 0.2-10 μM as indicated in the text. The final concentration for K562 cell treatments was 20-40 μM. Ferric citrate (1-50 μM) and deferoxamine (100-200 μM) (Sigma) were dissolved in PBS and added on days 0-4 of “expansion” culture, and washed off prior to erythroid stage I (days 4-9) differentiation. For in vivo experiments, SMER28 aliquots were diluted in vehicle solution: 30% PEG-400, 5% propylene glycol, and 0.5% Tween-80. Dosing for human xenograft experiments was 2 mg/kg; for mouse models 10-20 mg/kg. Dexamethasone was purchased as Dex-sodium phosphate (DexSP) water-soluble formulation (Santa Cruz), and diluted in PBS vehicle (1 mg/kg). NSG mice were sub-lethally irradiated at 275 rads, and administered 100 μl of drug or vehicle by oral gavage daily.

[1] = test system: K562 erythroleukemia cells transduced with shRPS19; test: Autophagy induction (p62, LC3-I, LC3-II protein levels) in K562 cells transduced with shRPS19; type: cell-based, human; details: 5-FU 100 nM
Procedure: (FIG. 13A) Induction of autophagy by SMER28 (40 μM) monitored by protein levels of p62, LC3-I, and LC3-II after 24 hours. Cells were also treated with 5-FU (100 nM) to induce autophagy, or inhibitor of transcription actinomycin D (ActD; 100 nM). (FIG. 13B) Induction of autophagy by SMER28 (40 μM) monitored by protein levels of p62, LC3-I, and LC3-II after 24 hours treatment with or without lysosomal blockade with bafilomycin A (200 nM for 4 hours). Untreated samples are shown at higher exposure, to capture dynamic changes in the LC3-II levels. Rapamycin (200 nM) is a positive control. LC3-II levels relative to GAPDH are quantitated on the right. (FIG. 13C) Erythroid differentiation of CD34-5F cells transduced with shRNAs for luciferase (LUC) or ATG5±SMER28. Representative flow plots and quantitation showing the number of erythroid cells induced by SMER28 (10 μM) normalized to DMSO. 2 control luciferase shRNAs and 2 ATG5 shRNAs are included (knockdown efficiency in hematopoietic cells of 58% and 50%, respectively), each with 2 independent lines; p=0.005, 3 independent experiments. (FIG. 13D) Atg5 deficiency causes anemia in zebrafish. Wild-type zebrafish embryos were treated with 1.6 ng atg5 or missense morpholino, and hemoglobin staining was visualized with benzidine staining at 40 hpf with SMER28 (1 μM). Representative images (left), and quantitation (right) with embryos grouped by high, medium, and low levels of benzidine staining.
SMER28 was identified as an mTOR-independent inducer of autophagy, by synergizing with rapamycin to promote clearance of protein aggregates in models of neurodegenerative disease (Sarkar et al., 2007; Tian et al., 2011). Autophagy is a pro-survival pathway induced by a variety of stresses, such as nutrient limitation or protein aggregation. Autophagy is required for clearance of mitochondria during terminal erythroid maturation (Mortensen and Simon, 2010), but has not been linked with earlier stages of erythropoiesis. To determine if SMER28 modulates autophagy in erythroid cells, we interrogated the levels of p62 and LC3 in K562 erythroleukemia cells transduced with shRPS19. SMER28 reduced p62 and increased the levels of […] LC3-II isoform associated with autophagosomes (FIG. 13A). […] To measure autophagic flux, we monitored LC3-II levels after blocking lysosomal fusion with bafilomycin A. SMER28 increased LC3-II levels following lysosomal blockade, similarly to the mTOR inhibitor rapamycin (FIG. 13B).
Drug treatments. SMER28 was purchased from Tocris and diluted in 10 mM aliquots in DMSO. The final concentration for CD34-5F and CB CD34^+erythroid treatments was 0.2-10 μM as indicated in the text. The final concentration for K562 cell treatments was 20-40 μM. […]

[2] = test system: CD71+ cells in a erythroid cell population; test: Percentage of CD71+ cells in an erythroid cell population in vitro; type: cell-based; details: between 5-20 μM in vitro
Text: Accordingly, in some embodiments, an autophagy activator as disclosed herein can be administered to a subject according to the methods as disclosed herein in an effective dose to increase the levels of CD71+ cells in an erythroid cell population obtained from the subject by at least about 1%, at least about 2%, at least about 3%, at least about 5%, at least about 10%, at least about 15%, least about 20%, at least about 30%, at least about 40%, at least about 50%, or more than 50%, as compared to in the absence of an autophagy activator.

C[C@@H]1C[C@H]2[C@@H]3CCC4=CC(=O)C=C[C@]4(C)[C@@]3(F)[C@@H](O)C[C@]2(C)[C@@]1(O)C(=O)CO [Dex, Dexamethasone, reference compound]
RBC output as proportion of human graft (CB CD34+ cells): 10.4%

O=c1[nH]cc(F)c(=O)[nH]1 [5-fluorouracil, reference compound]
conversion of cytosolic LC3-I into LC3-II [1]: induced

CN1CCN(CCCN2c3ccccc3Sc3ccc(C(F)(F)F)cc32)CC1 [TFP]
percentage of CD71+ cells [2]: restored
